According to patent US10058526B2, “Compositions containing pheromones for treating behavioural or medical problems linked to the stress of non-human mammals” (CEVA SANTE ANIMALE, priority 2014, dated 2018):
Structures can show the parent of a compound that is named as a salt.

Assay: Diffusion of solvents in a 5.6 W electric diffuser (Example 1)
Assay type: physicochemical
Details: 48 ml solvent, average per day over 30 days
Procedure: 48 ml of solvent to be tested are placed in a 5.6 W electric diffuser. The amount of solvent diffused is measured for 30 days following plugging in of the diffuser, and the average diffusion of product per day is calculated and summarized in Table 1 below: […]

Compound | Diffusion of product
CC(C)OC(=O)CCCCCCCCC(=O)OC(C)C [Diisopropyl sebacate] | 1 g/day
CC(C)CCCCCCOC(=O)CCCCCC(C)C [Isononyl isononanoate] | 2 g/day
CCCCCCCCCCCCCC(=O)OC(C)C [Isopropyl myristate] | 1 g/day
CO[C@H]1CO[C@H]2[C@@H]1OC[C@H]2OC [Isosorbide dimethyl ether] | 2 g/day
CC1COC(=O)O1 (stereo not shown) [Propylene carbonate] | 4 g/day
CCOC(=O)CC(O)(CC(=O)OCC)C(=O)OCC [Triethyl citrate] | 1 g/day
Glycofurol | 0.5 g/day
